{"source": "patent US7312246B2", "about": "“Proteomimetic compounds and methods” (Yale University, priority 2001, dated 2007)", "key": {"Solubility in buffer": {"test": "Solubility in buffer", "type": "physicochemical", "settings": "buffer with <1% DMSO", "text": "For synthetic simplicity we changed the indole of Trp800 to phenyl and removed the hydroxyl of Thr803. Using Negishi couplings of differently substituted phenyltriflates, we prepared terphenyl a as a mimic of the calmodulin binding face of smMLCK."}, "calmodulin (CaM) [1]": {"target": "T1, calmodulin (CaM) (Homo sapiens, UniProt P0DP23)", "test": "Avidin-based affinity resin derivatized with biotinylated CaM: retention of compound", "type": "binding", "text": "Discrete complex formation to CaM was indicated by the release of a from the column, as monitored by HPLC, on elution with […] biotin. […] To amplify the binding event between CaM and a, an enzymatic assay was also employed."}, "calmodulin (CaM) [2]": {"target": "T1, calmodulin (CaM)", "test": "Antagonism of CaM activation of phosphodiesterase (PDE), monitored by hydrolysis of mant-cGMP", "type": "biochemical", "settings": "for IC50: 13.9 nM CaM, 50 mu/ml PDE, 8 μM mant-cGMP, pH 7.0, read-out: IC50, inhibition of CaM activation of PDE", "description": "13.9 nM CaM, 50 mu/ml PDE, 8 μM mant-cGMP, 10 mM Mops, 0.5 mM MgCl2, 90 mM KCl, 0.73 mM CaCl2, 0.2% DMSO, pH 7.0."}, "calmodulin (CaM) [3]": {"target": "T1, calmodulin (CaM)", "test": "Polyacrylamide gel permeation chromatography (6 kD cutoff) with and without CaM", "type": "binding", "settings": "70 μM in buffer"}, "[4]": {"target": "T2, gp41 core model (N36/C34 six helix bundle) (Human immunodeficiency virus type 1 group M subtype B, UniProt P04578)", "T2 construct": "two peptides (N36 and C34), from the N and C heptad repeat regions of gp41; purchased HHMI Biopolymer/Keck Foundation Biotechnology Resource Center, Yale University School of Medicine; host or cells: synthetic peptides", "T2 sequence (P04578 546-581)": "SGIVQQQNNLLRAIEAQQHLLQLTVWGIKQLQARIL", "type": "binding, HIV-1", "settings": "10 μM gp41 core model, 50 mM PBS, 150 mM NaCl, pH 7.0, 4° C.", "text": "Spectra were corrected by the subtraction of a blank corresponding to the solvent composition of each sample."}, "Bcl-xL": {"target": "Bcl-xL (Homo sapiens, UniProt Q07817)", "sequence (Q07817 whole entry)": "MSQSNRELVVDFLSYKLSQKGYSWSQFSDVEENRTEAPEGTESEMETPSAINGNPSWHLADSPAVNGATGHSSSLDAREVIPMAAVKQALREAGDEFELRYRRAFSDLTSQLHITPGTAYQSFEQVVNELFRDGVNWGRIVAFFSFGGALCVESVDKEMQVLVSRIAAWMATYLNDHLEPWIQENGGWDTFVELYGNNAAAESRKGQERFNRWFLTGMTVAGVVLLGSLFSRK", "test": "Fluorescence polarization assay: displacement of fluorescein-labeled 16-mer Bak-peptide from Bcl-xL", "type": "binding", "settings": "for binding affinity for Bcl-xL (in words): compared with m", "protocol": "Based on these structural requirements we designed a series of terphenyl molecules (k-n) containing alkyl or aryl substituents on the three ortho positions (to mimic the key i, i+3, and i+7 groups in Bak or Bad) and carboxylic acid substituents on either end (to mimic the additional ion pair) (FIG. 17). The binding affinity of these molecules for Bcl-xL was assessed by a fluorescence polarization assay using fluoresceine-labeled 16-mer Bak-peptide. Displacement of this probe through competitive binding of the terphenyl into the hydrophobic cleft of BCl-xL would lead to a decrease in its fluorescence polarization which in turn could be related to the known affinity of the 16-mer Bak/Bcl-xL complex."}}}
{"molecule": "CCc1cc(-c2ccc(OCC(=O)O)cc2C(C)C)ccc1-c1cccc(Cc2ccccc2)c1.N", "note": "[48.NH4, Ammonium (3-benzyl-2′-ethyl-2″-isopropyl-[1,1′:4′,1″]terphenyl-4″-yloxy)-acetate]", "values": [{"measurement": "solubility in buffer", "setting": "Solubility in buffer", "result": "surprisingly soluble in buffer with <1% DMSO"}]}
{"molecule": "CCc1cc(-c2ccc(OCC(=O)O)cc2C(C)C)ccc1-c1cccc(Cc2ccccc2)c1", "note": "[a, (3-Benzyl-2′-ethyl-2″-isopropyl-[1,1′:4′,1″]terphenyl-4″-yloxy)-acetic acid]", "values": [{"measurement": "retention on avidin affinity resin derivatized with biotinylated CaM", "setting": "calmodulin (CaM) [1]; CaM-derivatized resin", "result": "retention of the terphenyl on the column"}, {"measurement": "retention on underivatized avidin resin (control experiment)", "setting": "calmodulin (CaM) [1]; underivatized avidin resin", "result": "no observable retention"}, {"measurement": "IC50", "setting": "calmodulin (CaM) [2]", "result": 800, "unit": "nM"}, {"measurement": "inhibitory potency, fold less than RS20", "setting": "calmodulin (CaM) [2]; relative to 20-mer peptide RS20", "result": 10, "unit": "fold"}]}
{"molecule": "CCc1cc(-c2ccc(OCC(=O)O)cc2C(C)C)ccc1-c1cccc(Cc2cccc3ccccc23)c1", "note": "[b, (2′-Ethyl-2″-isopropyl-3-naphthalen-1-ylmethyl-[1,1′:4′,1″]terphenyl-4″-yloxy)-acetic acid]", "values": [{"measurement": "IC50", "setting": "calmodulin (CaM) [2]", "result": 9, "unit": "nM"}, {"measurement": "potency, fold improvement over RS20", "setting": "calmodulin (CaM) [2]; relative to helical peptide RS20", "result": 8, "unit": "fold"}]}
{"molecule": "CCc1cc(-c2ccc(OCC(=O)O)cc2C(C)C)ccc1-c1cccc(Cc2ccc3ccccc3c2)c1", "note": "[c, (2′-Ethyl-2″-isopropyl-3-naphthalen-2-ylmethyl-[1,1′:4′,1″]terphenyl-4″-yloxy)-acetic acid]", "values": [{"measurement": "IC50", "setting": "calmodulin (CaM) [2]", "result": 20, "unit": "nM"}]}
{"molecule": "CC(C)Cc1cc(-c2ccc(-c3ccc(CCCN)cc3CC(C)C)cc2C(C)C)ccc1OCCN.Cl.Cl", "note": "[g, 3-[4″-(2-aminoethoxy)-2,3″-diisobutyl-3′-isopropyl-1,1′:4′,1″-terphenyl-4-yl]propan-1-amine dihydrochloride]", "values": [{"measurement": "behaviour on gel permeation column, compound alone", "setting": "calmodulin (CaM) [3]; alone", "result": "retained on the column"}, {"measurement": "behaviour on gel permeation column, mixed with one equivalent of CaM", "setting": "calmodulin (CaM) [3]; one equivalent of CaM", "result": "passed through"}, {"measurement": "effect on CD spectrum of gp41 core model (helicity of the hexameric bundle)", "setting": "[4]", "result": "little effect on the protein CD spectrum even at high concentrations"}]}
{"molecule": "O=C(O)CCc1ccc(-c2ccc(OCC(=O)O)cc2)cc1", "note": "[i, 3-[4′-(carboxymethoxy)-1,1′-biphenyl-4-yl)propanoic acid]", "values": [{"measurement": "effect on CD spectrum of gp41 core model (helicity of the hexameric bundle)", "setting": "[4]", "result": "little effect on the protein CD spectrum even at high concentrations"}]}
{"molecule": "CC(C)Cc1cc(CCC(=O)O)ccc1-c1ccc(-c2ccc(OCC(=O)O)c(Cc3ccccc3)c2)c(Cc2ccccc2)c1", "note": "[j, 3-(3′,3″-dibenzyl-4″-(carboxymethoxy)-2-isobutyl-1,1′:4′,1″-terphenyl-4-yl)propanoic acid]", "values": [{"measurement": "effect on CD spectrum of gp41 core model (helicity of the hexameric bundle)", "setting": "[4]", "result": "modest enhancement in activity compared to f"}]}
{"molecule": "CC(C)Cc1cc(-c2ccc(-c3ccc(CCC(=O)O)cc3CC(C)C)cc2Cc2ccccc2)ccc1OCC(=O)O", "note": "[l, 3-(3′-Benzyl-4″-(carboxymethoxy)-2,3″-diisobutyl-1,1′4″1″-terphenyl-4-yl)propanoic acid]", "values": [{"measurement": "binding affinity for Bcl-xL (in words)", "setting": "Bcl-xL", "result": "less binding affinity"}]}
{"molecule": "CC(C)Cc1cc(-c2ccc(-c3ccc(CCC(=O)O)cc3CC(C)C)cc2Cc2cccc3ccccc23)ccc1OCC(=O)O", "note": "[m, 3-(4-(Carboxymethoxy)-3,2″-diisobutyl-2′-naphthalen-1-ylmethyl-[1,1′:4′,1″]-terphenyl-4″-yl)propionic acid]", "values": [{"measurement": "Kd", "setting": "Bcl-xL; related to known affinity of 16-mer Bak/Bcl-xL complex, read-out: KD-value, binding to Bcl-xL", "result": 114, "unit": "nM"}]}
{"molecule": "CC(C)Cc1cc(CCC(=O)O)ccc1-c1ccc(-c2ccc(OCC(=O)O)c(Cc3cccc4ccccc34)c2CC(C)C)cc1", "note": "[n, 3-(4-(Carboxymethoxy)-2,2″-diisobutyl-3-naphthalen-1-ylmethyl-[1,1′:4′,1″]-terphenyl-4″-yl)propionic acid]", "values": [{"measurement": "binding affinity for Bcl-xL (in words)", "setting": "Bcl-xL", "result": "significant loss in binding affinity"}]}
{"molecule": "Bis methyl 3-(1,1′:4′,1″-terphenyl-4,4″-yl)propanoic acid", "values": [{"measurement": "effect on CD spectrum of gp41 core model (helicity of the hexameric bundle)", "setting": "[4]", "result": "little effect on the protein CD spectrum even at high concentrations"}]}
